Measurements from patent publication US10441663B2, “Methods for treating cancer” (Bicycle Therapeutics Limited, priority 2016, dated 2019).
*1 amine or outer side, *2 acyl side, *3 side chain or, on linkers, in order; H or OH if unused. Where a SMILES comes first, the peptide text is derived from it. Bridges are numbered along the chain shown (N, C = ends). [ ]: non-standard residue; d: D form. The star is where a group is joined. X1 = COc1cc2cc(c1Cl)N(C)C(=O)C[C@H](OC(=O)[C@H](C)N(C)C(=O)CCSSC(C)CCC(=O)*)[C@]1(C)O[C@H]1[C@H](C)[C@@H]1C[C@@](O)(NC(=O)O1)[C@H](OC)/C=C/C=C(\C)C2; 1Nal = N[C@@H](Cc1cccc2ccccc12)C(=O)O; TBMB = c1c(C[*:1])cc(C[*:3])cc1C[*:2]; Tle = CC(C)(C)[C@H](N)C(=O)O; βAla = NCCC(=O)O; Sar = CNCC(=O)O

System: NCI-H292 xenograft
Experiment: In vivo efficacy of BT1718 in NCI-H292 xenograft
Set-up: species or system Mus Musculus; key to Best response at 10 mg/kg: CR complete response; PR partial response
Procedure: The objective of this study was to evaluate the in vivo anti-tumor efficacy of BT1718in treatment of HT1080, NCI-H292, NCI-H1975, MDA-MB-231, HCC1806, RPMI2650, HCT-15, HT-29 and SNU-16 xenograft in BALB/c nude mice.
The HT1080, NCI-H292, NCI-H1975, MDA-MB-231, HCC1806, RPMI2650, HCT-15, HT-29 and SNU-16 tumor cells were maintained in vitro as a monolayer culture in medium supplemented with 10% heat inactivated fetal bovine serum at 37° C. in an […]. The tumor cells will be routinely subcultured twice weekly by trypsin-EDTA treatment. The cells growing in an exponential growth phase will be harvested and counted for tumor inoculation.
Mouse was inoculated subcutaneously at the right flank with tumor cells for tumor development. The animals were randomized and treatment was started when the average tumor reaches certain volume for the efficacy study, the inoculating cell amounts and starting tumor size were shown as below in Table 9. The test article administration and the animal numbers in each group were shown in the experimental design in Table 10.
All the procedures related to animal handling, care and the treatment in the study were performed according to the guidelines of the Association for Assessment and Accreditation of Laboratory Animal Care (AAALAC). At the time of routine monitoring, the animals were daily checked for any effects of tumor growth and treatments on normal behavior such as mobility, food and water consumption (by looking only), body weight gain/loss (body weights were measured every day), eye/hair matting and any other abnormal effect as stated in the protocol. Death and observed clinical signs were recorded on the basis of the numbers of animals within each subset.
The major endpoint was to see if the tumor growth could be delayed or mice could be cured. Tumor size was measured three times weekly in two dimensions using a caliper, and the volume was expressed in mm^3 using the formula: V=0.5 a×b^2 where a and b are the long and short diameters of the tumor, respectively. The tumor size was then used for calculations of T/C value. The T/C value (in percent) is an indication of antitumor effectiveness; T and C are the mean volumes of the treated and control groups, respectively, on a given day.
TGI was calculated for each group using the formula: TGI (%)=[1−(Ti−T0)/(Vi−V0)]×100; Ti is the average tumor volume of a treatment group on a given day, T0 is the average tumor volume of the treatment group on the day of treatment start, Vi is the average tumor volume of the vehicle control group on the same day with Ti, and V0 is the average tumor volume of the vehicle group on the day of treatment start.
Summary statistics, including mean and the standard error of the mean (SEM), are provided for the tumor volume of each group at each time point.
Statistical analysis of difference in tumor volume among the groups was conducted on the data obtained at the best therapeutic time point after the final dose.
A one-way ANOVA was performed to compare tumor volume among groups, and when a significant F-statistics (a ratio of treatment variance to the error variance) was obtained, comparisons between groups were carried out with Games-Howell test. All data were analyzed using Prism. P<0.05 was considered to be statistically significant.

With COc1cc2cc(c1Cl)N(C)C(=O)C[C@H](OC(=O)[C@H](C)N(C)C(=O)CCSSC(C)CCC(=O)NCCC(=O)N(C)CC(=O)N(C)CC(=O)N(C)CC(=O)N(C)CC(=O)N(C)CC(=O)N(C)CC(=O)N(C)CC(=O)N(C)CC(=O)N(C)CC(=O)N(C)CC(=O)N[C@@H](C)C(=O)N[C@H]1CSCc3cc4cc(c3)CSC[C@H](NC(=O)[C@@H](C)NC(=O)[C@H](Cc3cccc5ccccc35)NC(=O)[C@H](CCC(=O)O)NC(=O)[C@H](CC(N)=O)NC(=O)[C@@H](C)NC1=O)C(=O)N[C@@H](CCC(=O)O)C(=O)N[C@@H](CC(=O)O)C(=O)N[C@@H](Cc1ccccc1)C(=O)N[C@@H](Cc1ccc(O)cc1)C(=O)N[C@@H](CC(=O)O)C(=O)N[C@@H](C(C)(C)C)C(=O)N[C@H](C(N)=O)CSC4)[C@]1(C)O[C@H]1[C@H](C)[C@@H]1C[C@@](O)(NC(=O)O1)[C@H](OC)/C=C/C=C(\C)C2 (stereo partly drawn) [BT1718] ({X1-βAla}-[Sar][Sar][Sar][Sar][Sar][Sar][Sar][Sar][Sar][Sar]AC[dA]NE[1Nal][dA]CEDFYD[Tle]C-NH2; linker 12-18-25 via TBMB (inferred)) the “tumors that failed to respond on resumed treatment” value (10 mg/kg biw re-treatment) was 1/3, the “tumors with lack of clear tumor growth on re-treatment” value (10 mg/kg biw re-treatment) was 2/3 and the “Body Weight” value (1 mpk biw, day 0) was 22.8 ± 0.7 g. For the same compound, the “Tumor Volume” value (1 mpk biw, day 0) was 153 ± 9 mm^3, the “Body Weight” value (1 mpk biw, day 2) was 22.9 ± 0.3 g and the “Tumor Volume” value (1 mpk biw, day 2) was 215 ± 25 mm^3. The “Body Weight” value (1 mpk biw, day 4) was 23.4 ± 0.5 g, the “Tumor Volume” value (1 mpk biw, day 4) was 326 ± 49 mm^3 and the “Body Weight” value (1 mpk biw, day 7) was 23.6 ± 0.6 g. The “Tumor Volume” value (1 mpk biw, day 7) was 514 ± 54 mm^3, the “Body Weight” value (1 mpk biw, day 9) was 23.7 ± 0.7 g and the “Tumor Volume” value (1 mpk biw, day 9) was 669 ± 53 mm^3. The “Body Weight” value (1 mpk biw, day 11) was 23.4 ± 0.7 g, the “Tumor Volume” value (1 mpk biw, day 11) was 978 ± 97 mm^3 and the “Body Weight” value (1 mpk biw, day 14) was 23.5 ± 1.0 g. For the same compound, the “TGI (%)” value (1 mpk biw, day 14) was 20.7%, the “Tumor Volume” value (1 mpk biw, day 14) was 1174 ± 98 mm^3 and the “Tumor Volume(mm^3)” value (1 mpk biw, day 14) was 1174 ± 98 mm^3. The “Body Weight” value (3 mpk biw, day 0) was 22.7 ± 0.5 g, the “Tumor Volume” value (3 mpk biw, day 0) was 151 ± 15 mm^3 and the “Body Weight” value (3 mpk biw, day 2) was 23.5 ± 0.4 g. For the same compound, the “Tumor Volume” value (3 mpk biw, day 2) was 226 ± 22 mm^3, the “Body Weight” value (3 mpk biw, day 4) was 23.2 ± 0.7 g and the “Tumor Volume” value (3 mpk biw, day 4) was 334 ± 65 mm^3. The “Body Weight” value (3 mpk biw, day 7) was 23.4 ± 0.8 g, the “Tumor Volume” value (3 mpk biw, day 7) was 443 ± 70 mm^3 and the “Body Weight” value (3 mpk biw, day 9) was 22.9 ± 0.9 g. For the same compound, the “Tumor Volume” value (3 mpk biw, day 9) was 591 ± 90 mm^3, the “Body Weight” value (3 mpk biw, day 11) was 22.6 ± 1.0 g and the “Tumor Volume” value (3 mpk biw, day 11) was 781 ± 178 mm^3. For the same compound, the “Body Weight” value (3 mpk biw, day 14) was 22.0 ± 1.2 g, the “TGI (%)” value (3 mpk biw, day 14) was 40.3% and the “Tumor Volume” value (3 mpk biw, day 14) was 920 ± 258 mm^3. The “Tumor Volume(mm^3)” value (3 mpk biw, day 14) was 920 ± 258 mm^3, the “Body Weight” value (10 mpk biw, day 0) was 22.8 ± 0.4 g and the “Tumor Volume” value (10 mpk biw, day 0) was 153 ± 6 mm^3. For the same compound, the “Body Weight” value (10 mpk biw, day 2) was 22.1 ± 0.3 g, the “Tumor Volume” value (10 mpk biw, day 2) was 152 ± 8 mm^3 and the “Body Weight” value (10 mpk biw, day 4) was 21.7 ± 0.3 g. For the same compound, the “Tumor Volume” value (10 mpk biw, day 4) was 151 ± 32 mm^3, the “Body Weight” value (10 mpk biw, day 7) was 22.4 ± 0.3 g and the “Tumor Volume” value (10 mpk biw, day 7) was 159 ± 49 mm^3. For the same compound, the “Body Weight” value (10 mpk biw, day 9) was 21.8 ± 0.2 g, the “Tumor Volume” value (10 mpk biw, day 9) was 158 ± 49 mm^3 and the “Body Weight” value (10 mpk biw, day 11) was 21.8 ± 0.2 g. For the same compound, the “Tumor Volume” value (10 mpk biw, day 11) was 143 ± 52 mm^3, the “Body Weight” value (10 mpk biw, day 14) was 22.5 ± 0.4 g and the “TGI (%)” value (10 mpk biw, day 14) was 101.6%. The “Tumor Volume” value (10 mpk biw, day 14) was 133 ± 44 mm^3, the “Tumor Volume(mm^3)” value (10 mpk biw, day 14) was 133 ± 44 mm^3 and the “Best response at 10 mg/kg” value (NCI-H292, 10 mg/kg) was “CR”. The “Minimally Effective Dose IV BIW” value (NCI-H292, dose leading to tumor-stasis) was <10 mg/kg, the “dosing suspension until re-growth to 150 mm3” value (after 10 mg/kg biw) was 2-3 weeks and the “tumor volume after regression” value (after 4 weeks 10 mg/kg biw) was “below 50 mm3”.
